Data taken from patent publication US9732119B2, “Immunomodulators” (BRISTOL-MYERS SQUIBB COMPANY, priority 2014, dated 2017).
Positions of bridges follow the written chain, without caps; N, C: chain ends. Non-standard residues stand in square brackets, D forms with d. Residues, ends and D or L forms follow the SMILES beside them. Trp(1-CH2COOH) = N[C@@H](Cc1cn(CC(=O)O)c2ccccc12)C(=O)O; Phe(4-F) = N[C@@H](Cc1ccc(F)cc1)C(=O)O; Hyp = O=C(O)[C@@H]1C[C@@H](O)CN1; NMeNle = CCCC[C@H](NC)C(=O)O; dOrn = NCCC[C@@H](N)C(=O)O; Pip = O=C(O)[C@@H]1CCCCN1; NMeA = CN[C@@H](C)C(=O)O; Dab = NCC[C@H](N)C(=O)O; Dap = NC[C@H](N)C(=O)O; GABA = NCCCC(=O)O

Biological target: T1, PD-1-Ig binding to PD-L1-TVMV-His (PD-L1-His) (Homo sapiens, UniProt Q9NZQ7)
T1 construct: hPDL1(19-239)-TVMV-His; made in house; host or cells: HEK293T cells
T1 sequence (Q9NZQ7 with tags, fused parts or gaps): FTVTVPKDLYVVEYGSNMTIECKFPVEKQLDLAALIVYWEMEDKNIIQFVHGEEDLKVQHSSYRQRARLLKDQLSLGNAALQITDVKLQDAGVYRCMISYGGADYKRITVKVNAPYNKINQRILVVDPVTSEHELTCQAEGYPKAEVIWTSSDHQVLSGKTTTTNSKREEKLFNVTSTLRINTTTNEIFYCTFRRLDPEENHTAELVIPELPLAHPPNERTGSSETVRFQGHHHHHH
Assay: PD-1/PD-L1 Homogenous Time-Resolved Fluorescence (HTRF) binding assay
Details: PD-1-Ig (20 nM) / PD-L1-His (10 nM); range classes
Method in brief: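 In dPBS with 0.1% BSA and 0.05% Tween-20, inhibitors were preincubated 15 min with 10 nM PD-L1-His before 20 nM PD-1-Ig was added for another 15 min. Binding read by time-resolved FRET between Eu-cryptate anti-Ig (1 nM) and APC anti-His (20 nM).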

Question: For `CCCC[C@H]1C(=O)N(C)[C@@H](CCCC)C(=O)N[C@@H](CC(C)C)C(=O)NCCC[C@@H](N)C(=O)N[C@@H](Cc2ccc(F)cc2)C(=O)N2CCCC[C@H]2C(=O)N[C@@H](CC(N)=O)C(=O)N2CCC[C@H]2C(=O)N[C@@H](CN)C(=O)N[C@@H](CC(C)C)C(=O)N2C[C@H](O)C[C@H]2C(=O)N[C@@H](Cc2c[nH]c3ccccc23)C(=O)N[C@@H](CCN)C(=O)N[C@@H](Cc2cn(CC(=O)O)c3ccccc23)C(=O)N1C` [Example 10566] (H-[dOrn][Phe(4-F)][Pip]NP[Dap]L[Hyp]W[Dab][Trp(1-CH2COOH)][NMeNle][NMeNle]L; lactam 1-C), which IC50 is on record?
Answer: 1 to 9.9 nM

Question: With `CCCC[C@H]1C(=O)N(C)[C@@H](CCCC)C(=O)N[C@@H](CC(C)C)C(=O)NCCCC(=O)NCC(=O)N[C@@H](Cc2ccc(O)cc2)C(=O)N(C)[C@@H](C)C(=O)N[C@@H](CC(N)=O)C(=O)N2CCC[C@H]2C(=O)N[C@@H](Cc2c[nH]cn2)C(=O)N[C@@H](CC(C)C)C(=O)N2C[C@H](O)C[C@H]2C(=O)N[C@@H](Cc2c[nH]c3ccccc23)C(=O)NCC(=O)N[C@@H](Cc2c[nH]c3ccccc23)C(=O)N1C` [Example 5005] (cyclo(GW[NMeNle][NMeNle]L[GABA]GY[NMeA]NPHL[Hyp]W)) as the molecule, how does the IC50 read?
Answer: 100 to 10000 nM

Question: For `CCCC[C@H]1C(=O)N(C)[C@@H](CCCC)C(=O)N[C@@H](CC(C)C)C(=O)N[C@H](C(N)=O)CNCC(=O)N[C@@H](Cc2ccc(O)cc2)C(=O)N2CCCC[C@H]2C(=O)N[C@@H](CC(=O)O)C(=O)N2CCC[C@H]2C(=O)N[C@@H](CCC(N)=O)C(=O)N[C@@H](CCC(=O)O)C(=O)N2C[C@H](O)C[C@H]2C(=O)N[C@@H](Cc2c[nH]c3ccccc23)C(=O)N[C@@H](CC(N)=O)C(=O)N[C@@H](Cc2cn(CC(=O)O)c3ccccc23)C(=O)N1C` [Example 9014], which IC50 is on record?
Answer: 1 to 9.9 nM

Question: With `CCCC[C@H]1C(=O)N(C)[C@@H](CCCC)C(=O)N[C@@H](CC(C)C)C(=O)N[C@H](C)C(=O)NCC(=O)N[C@@H](Cc2ccc(O)cc2)C(=O)N(C)[C@@H](C)C(=O)N[C@@H](CC(N)=O)C(=O)N2CCC[C@H]2C(=O)N[C@@H](CN)C(=O)N[C@@H](CC(C)C)C(=O)N2C[C@H](O)C[C@H]2C(=O)N[C@@H](Cc2c[nH]c3ccccc23)C(=O)N[C@@H](CCN)C(=O)N[C@@H](Cc2c[nH]c3ccccc23)C(=O)N1C` [Example 5007] (cyclo([Dab]W[NMeNle][NMeNle]L[dA]GY[NMeA]NP[Dap]L[Hyp]W)) as the molecule, how does the IC50 read?
Answer: 1 to 9.9 nM

Question: `CCCC[C@H]1C(=O)N(C)[C@@H](CCCC)C(=O)N[C@@H](CC(C)C)C(=O)N[C@H](C(N)=O)CNCC(=O)N[C@@H](Cc2ccc(F)cc2)C(=O)N2CCCC[C@H]2C(=O)N[C@@H](CC(=O)O)C(=O)N2CCC[C@H]2C(=O)N[C@@H](CCC(N)=O)C(=O)N[C@@H](CC(=O)O)C(=O)N2C[C@H](O)C[C@H]2C(=O)N[C@@H](Cc2c[nH]c3ccccc23)C(=O)N[C@@H](CC(N)=O)C(=O)N[C@@H](Cc2cn(CC(=O)O)c3ccccc23)C(=O)N1C` [Example 9039] was tested. Which IC50 did it give?
Answer: 1 to 9.9 nM

Question: For `CCCC[C@H]1C(=O)N(C)[C@@H](CCCC)C(=O)N[C@@H](CCC(=O)O)C(=O)N[C@H](C(=O)NCC(N)=O)CNCC(=O)N[C@@H](Cc2ccc(F)cc2)C(=O)N(C)[C@@H](C)C(=O)N[C@@H](CC(N)=O)C(=O)N2CCC[C@H]2C(=O)N[C@@H](CCC(N)=O)C(=O)N[C@@H](CC(C)C)C(=O)N2C[C@H](O)C[C@H]2C(=O)N[C@@H](Cc2c[nH]c3ccccc23)C(=O)N[C@@H](CC(N)=O)C(=O)N[C@@H](Cc2cn(CC(=O)O)c3ccccc23)C(=O)N1C` [Example 9022], which IC50 is on record?
Answer: 10 to 99 nM

Question: With `CCCC[C@H]1C(=O)N(C)[C@@H](CCCC)C(=O)N[C@@H](CC(C)C)C(=O)N[C@H](C(N)=O)COCC(=O)N[C@@H](Cc2ccc(OC)cc2)C(=O)N2CCCC[C@H]2C(=O)N[C@@H](CC(N)=O)C(=O)N2CCC[C@H]2C(=O)N[C@@H](CN)C(=O)N[C@@H](CCC(=O)O)C(=O)N2C[C@H](O)C[C@H]2C(=O)N[C@@H](Cc2c[nH]c3ccccc23)C(=O)N[C@@H](CCN)C(=O)N[C@@H](Cc2cn(CC(=O)O)c3ccccc23)C(=O)N1C` [Example 10530] as the molecule, how does the IC50 read?
Answer: 1 to 9.9 nM
